Data: patent publication EP0133795B1 (THE McLEAN HOSPITAL CORPORATION, priority 1983, dated 1985)

Columns and labels:
[1] = Comparative brain/liver uptake of 14C-labeled compounds (Brain Penetration Index)
[2] = test system: general motor activity of mice; assay: General locomotor activity of mice (Stoelting electronic activity monitor); format: in vivo, Balb/c mice
general motor activity = assay: General motor activity of rats (dose-response, Fig. 1); format: in vivo; settings: n = 6 per dose
Text: • Figures 1A and 1 B show the effects of cholesteryl-GABA on general motor activity.

[3] = n-Octanol/water partition coefficient; format: physicochemical; settings: 5 ml n-octanol / 5 ml water, stirring 18 hours
Experimental: A Partition Coefficient was defined by the equation: [formula] representing the amount of the ester taken up per ml of n-octanol relative to the amount of the same compound taken up per ml of water.
The n-octanol/water partition coefficients were obtained from measurements of the distribution of 1, 3, 5 and 6 pmol quantities of each ^14C-labeled compound into a mixture of 5 ml of n-octanol and 5 ml water. At each concentration, the amount of labeled compound in the aqueous and n-octanol phases was calculated from the amount of radioactive material present after stirring for 18 hours.

GABA "receptors" = assay: Inhibition of [3H]GABA binding to synaptic membranes from rat cerebellum; settings: [3H]GABA (15 nM); synaptic membrane preparations from rat cerebellum
Experimental: IC50 values were determined by fitting data to linearized transformations, based on including at least two concentrations of antagonists above and below the IC50, with at least triplicate replication per concentration.

[4] = Enzymatic hydrolysis of cholesteryl [14C]GABA ester by rat brain homogenate; format: in vitro ADME; settings: 3 mg/ml, 37°C, S1 fractions of rat brain homogenates (0.8 mg/ml of protein)
Text: Cholesterol hydrolases and esterases are present in mammalian brain tissue.

[5] = 1 hr after administration; TLC
[6] = 50 μmol/kg s.c., 5 min, mice, mean ± S.E.M. (n = 3)

(3-Cholesteryl)-gamma-Aminobutyrate [Compound 6]
(BRAIN) [1, 6]: 0.17 ± 0.03 nmol/g
(LIVER) [1, 6]: 0.69 ± .08 nmol/g
BPI [1, 6]: 25 ± 7%
(BRAIN) ([1]; 50 μmol/kg s.c., 15 min, mice): 0.67 nmol/g
(LIVER) ([1]; 50 μmol/kg s.c., 15 min, mice): 1.19 nmol/g
BPI ([1]; 50 μmol/kg s.c., 15 min, mice): 56%
(BRAIN) ([1]; 50 μmol/kg s.c., 60 min, mice): 0.79 nmol/g
(LIVER) ([1]; 50 μmol/kg s.c., 60 min, mice): 0.92 nmol/g
BPI ([1]; 50 μmol/kg s.c., 60 min, mice): 86%
(BRAIN) ([1]; 50 μmol/kg s.c., 180 min, mice): 0.60 nmol/g
(LIVER) ([1]; 50 μmol/kg s.c., 180 min, mice): 1.89 nmol/g
BPI ([1]; 50 μmol/kg s.c., 180 min, mice): 32%
increase of 5-min BPI over GABA ([1]; 5 min after s.c. injection, relative to GABA): 25 fold
BPI ([1]; Table IX summary, 5-min Brain Penetration Index): 25
accumulation of radioactivity in brain persisted post-injection ([1]; s.c., mice): 45 to 60 min
In Vivo Inhibition of General Motor Activity ([2]; graded 0-5): 5
activity in the general motor activity test (in words) ([2]; i.p., mice): active
i.p. injected dose at which motor activity was reduced by 50% ([2]; mice, Fig. 1, n = 6 per dose, 60 min): 17 µmol/kg
i.p. injected dose at which motor activity was reduced by 50% (general motor activity): 8 µmol/kg
KOW: Octanol/Water Partition Coefficient [3]: 110.
IC50 (GABA "receptors"): 10 µM
Amount of Unreacted Substrate (6) ([4]; 10 min, 40 μl aliquots, TLC): 53.0 ± 7.0 nmol
Amount of Unreacted Substrate (6) ([4]; 30 min): 43.5 ± 6.3 nmol
Amount of Unreacted Substrate (6) ([4]; 60 min): 34.5 ± 4.9 nmol
labeled compound present as intact molecules in brain homogenates [5]: about 70%
